Experimental data taken from PMC10945556, “Design, Synthesis, and Antifungal Activity of 3-Substituted-2(5H)-Oxaboroles” (ACS Medicinal Chemistry Letters, 2024).

Key:
[1] = system: C. albicans; assay: MIC, microbroth dilution; format: cell-based, Candida albicans; settings: Candida albicans
[2] = system: Methicillin resistant Staphylococcus aureus; assay: MIC, microbroth dilution; format: cell-based; settings: Staphylococcus aureus, S. aureus (MRSA)
[3] = system: A. flavus; assay: MIC, dose-dependent solid media assay; format: cell-based, Aspergillus flavus; settings: Aspergillus flavus
[4] = system: E. coli; assay: MIC, microbroth dilution; format: cell-based, Escherichia coli; settings: Escherichia coli
[5] = system: B. cereus; assay: MIC, microbroth dilution; format: cell-based, Bacillus cereus; settings: Bacillus cereus
[6] = system: T. mentagrophytes; assay: MIC, dose-dependent solid media assay; format: cell-based, Trichophyton mentagrophytes; settings: Trichophyton mentagrophytes
[7] = system: P. aeruginosa; assay: MIC, microbroth dilution; format: cell-based, Pseudomonas aeruginosa; settings: Pseudomonas aeruginosa
[8] = system: P. chrysogenum; assay: MIC, dose-dependent solid media assay; format: cell-based, Penicillium chrysogenum; settings: Penicillium chrysogenum
[9] = system: S. cerevisiae; assay: MIC, microbroth dilution; format: cell-based, Saccharomyces cerevisiae; settings: Saccharomyces cerevisiae

Compound	MIC [1] [µg/mL]	MIC ([1]; value in parentheses) [µM]	MIC [2] [µg/mL]	MIC ([2]; value in parentheses) [µM]	MIC [3] [µg/mL]	MIC ([3]; value in parentheses) [µM]	MIC [4] [µg/mL]	MIC ([4]; value in parentheses) [µM]	MIC [5] [µg/mL]	MIC ([5]; value in parentheses) [µM]	MIC [6] [µg/mL]	MIC ([6]; value in parentheses) [µM]	MIC [7] [µg/mL]	MIC ([7]; value in parentheses) [µM]	MIC [8] [µg/mL]	MIC ([8]; value in parentheses) [µM]	MIC [9] [µg/mL]	MIC ([9]; value in parentheses) [µM]
OB1OCC=C1c1cccc(F)c1 [Compound 6c]	> 50	> 281	> 50	> 281	50	281	> 50	> 281	> 50	> 281	50	281	> 50	> 281	25	140	10.4 ± 2	58.4
Cc1ccccc1C1=CCOB1O [Compound 6v]	> 50	> 287	> 50	> 287	> 50	> 287	> 50	> 287	> 50	> 287	> 50	> 287	> 50	> 287	> 50	> 287	> 50	> 287
OB1OCC=C1c1ccccc1 [Compound 6a]	> 50	> 313	> 50	> 313	> 50	> 313	> 50	> 313	> 50	313	> 50	> 313	> 50	> 313	50	313	6.25	39.1
OB1OCC=C1c1cccc(I)c1 [Compound 6l]	> 50	> 175	> 50	> 175	25	87.4	> 50	> 175	> 50	> 175	25	87.4	> 50	> 175	6.25	21.9	> 50	> 175
COc1ccc(C2=CCOB2O)cc1 [Compound 6n]	> 50	> 263	> 50	> 263	> 50	> 263	> 50	> 263	> 50	> 263	> 50	> 263	> 50	> 263	> 50	> 263	> 50	> 263
OB1OCC=C1c1ccccc1Br [Compound 6j]	> 50	> 210	> 50	> 210	> 50	> 210	> 50	> 210	> 50	> 210	> 50	> 210	> 50	> 210	> 50	> 210	> 50	> 210
C[C@@H]1C[C@@H]([C@H](O)CC2CC(=O)NC(=O)C2)C(=O)[C@@H](C)C1 [Cycloheximide, reference compound]	> 50	> 178	> 50	> 178	> 50	> 178	> 50	> 178	> 50	> 178	> 50	> 178	> 50	> 178	12.5	44.4	1.56	5.54
COc1ccccc1C1=CCOB1O [Compound 6p]	> 50	> 263	> 50	> 263	> 50	> 263	> 50	> 263	> 50	> 263	> 50	> 263	> 50	> 263	> 50	> 263	> 50	> 263
OB1OCC=C1C1=CCCCC1 [Compound 6y]	> 50	> 305	> 50	> 305	> 50	> 305	> 50	> 305	> 50	> 305	> 50	> 305	> 50	> 305	> 50	> 305	21 ± 4	128
